Results on 10 molecules are retold here after patent US10526338B2, “Functionalized pentanoic acids for use influenza viral infections” (Janssen Sciences Ireland UC, priority 2016, dated 2020).

The structures appear in SMILES notation. Where two headings read alike, the source gives them in different places.

This experiment deals with influenza virus A/Taiwan/1/86 (H1N1). Kind of experiment: organism not typed. It is filed as cell-based. The following applies: 72 h, MDCK cells infected by influenza A/Taiwan/1/86 (H1N1), three days post-virus exposure, ATP levels.
The mark [1] stands for this setting: read-out: FLU-AVE-MDCK-ATP-TW_EC50.
Setting [2] is: read-out: FLU-AVE-MDCK-ATP-TW_pEC50 (converted).

Regarding `CC(C)(c1cccs1)C(CC(=O)O)Nc1nc(-c2c[nH]c3ncc(Cl)cc23)c(C#N)cc1F` (stereo not drawn), the EC50 is, setting by setting: under setting [1], 0.57 nM; under setting [2], 0.631 nM.

In the case of `CC(C)(c1cccs1)C(CC(=O)O)Nc1nc(-c2c[nH]c3ncc(Cl)cc23)ncc1F` (stereo not drawn), the EC50 under setting [1] is 2.54 nM and the EC50 under setting [2] is 2.51 nM.

As for `CC(C)(c1nccs1)C(CC(=O)O)Nc1nc(-c2c[nH]c3ncc(Cl)cc23)c(C#N)cc1F` (stereo not drawn), the EC50 is 0.267 nM under setting [1] and 0.251 nM under setting [2].

Take `Cn1ccc(C(C)(C)C(CC(=O)O)Nc2nc(-c3c[nH]c4ncc(Cl)cc34)c(C#N)cc2F)n1` (stereo not drawn): the EC50 is 2.56 nM under setting [1] and 2.51 nM under setting [2].

Take `CC1(C(CC(=O)O)Nc2nc(-c3c[nH]c4ncc(Cl)cc34)ncc2F)COC1` (stereo not drawn): the EC50 under setting [1] came out at 982 nM and the EC50 under setting [2] was 1000 nM.

Regarding `C=CCC(C)(C)C(CC(=O)O)Nc1nc(-c2c[nH]c3ncc(Cl)cc23)c(C#N)cc1F` (stereo not drawn), the EC50 under setting [1] came out at 1 nM and the EC50 under setting [2] is 1 nM.

With `CC(C)(c1ccccn1)C(CC(=O)O)Nc1nc(-c2c[nH]c3ncc(Cl)cc23)c(C#N)cc1F` (stereo not drawn), the EC50 under setting [1] came to 0.47 nM.

Turning to `CC(C)(c1ccccn1)C(CC(=O)O)Nc1nc(-c2c[nH]c3ncncc23)ncc1F` (stereo not drawn), the EC50 under setting [1] was determined as 1890 nM.

With `CC(C)(c1ccccn1)[C@H](CC(=O)O)Nc1nc(-c2c[nH]c3ncc(Cl)cc23)c(C#N)cc1F` (single isomer, unassigned), the EC50 is 0.075 nM under setting [1] and 0.00631 nM under setting [2].

`CC(C)(c1ccccn1)[C@@H](CC(=O)O)Nc1nc(-c2c[nH]c3ncc(Cl)cc23)c(C#N)cc1F` (single isomer, unassigned): the EC50 runs as follows: under setting [1], 5.4 nM; under setting [2], 5.01 nM.
